Source: patent US9381142B2, “Olfactory adaptation and cross-adapting agents to reduce the perception of body odors” (Monell Chemical Senses Center, priority 2002, dated 2016)

How the values were obtained:
[1] = test system: male stress-derived axillary odor; test: Cross-adaptation of male stress-derived axillary odor (odor panel, magnitude estimation of perceived intensity); format: in vivo, human; conditions: for Magnitude of Reduction of Intensity of Male Stress-Derived Odor (MSDO), Males: male stress-derived odor perceived by men; for Magnitude of Reduction of Intensity of Male Stress-Derived Odor (MSDO), Females: male stress-derived odor perceived by women
Text: (§1) The procedure relies upon an individual constantly sniffing an adapting agent, such as a fragrance, and occasionally a test odorant. Perceived intensity of the test odorant is obtained by using psychophysical, magnitude-estimation procedures. These perceived intensities are obtained every 30 seconds over the test period, and are then compared with baseline perceived intensities obtained before the individual began sniffing the adapting agent. Throughout the testing we observe adaptation to the adapting agent. Results during trials with an inserted test odorant, such as the axillary odor used here, are believed to be reasonably predictive. If the perceived intensity of the test odorant decreases during the test, then the adapting agent cross-adapts the test odorant and becomes a cross-adapting agent. If the cross-adapting agent is itself not offensive, then the cross-adapting agent becomes a candidate for use in formulations in consumer products to ameliorate malodors, such as axillary odor or fecal/urine odors, and odors related to the female menstrual cycle.
(§2) Collection of secretions: Apocrine secretions obtained under stressed conditions provided the axillary odor that was used as the test odorant to evaluate the effectiveness of various adapting agents. Secretions were obtained from males (ages 20 to 60 years) and females (ages 20 to 40 years) in good health. […] Volunteers prepared their axillae for collection of apocrine secretions by refraining from deodorant use for 3 days and shaving their axillae the morning of the collection day.
(§3) Volunteers were rested in a supine position. The axillary regions were washed with isopropanol-soaked pads and injected intradermally with 1:10,000 adrenalin (in physiologic saline). This injection stimulated the secretion of apocrine gland secretions, which were collected in 10 μl pipettes, passed into 0.25 ml Eppendorf tubes, and stored on ice (or frozen for longer storage). The amount of secretion collected varied greatly with the individual subject (≦10 μl). The apocrine secretions from each volunteer were combined by consecutively washing each Eppendorf tube with 2×300 μl of doubly distilled water. This aqueous-apocrine fluid was transferred to a 5 ml round-bottomed flask for hydrolysis. X-N. Zeng, J. J. Leyden, J. G. Brand, A. I. Spielman, K. J. McGinley, G. Preti, An Investigation of Human Apocrine Gland Secretion for Axillary Odor Precursors, 18 J. Chem. Ecol. 1039-1055 (1992); X-N. Zeng, J. J. Leyden, A. I. Spielman and G. Preti Analysis of the characteristic human female axillary odors: Qualitative comparison to males. 22 J. Chem. Ecol. 237-257 (1996).
(§4) Production of odor: To produce quantities of stress-derived axillary odor for testing purposes, we hydrolyzed the apocrine secretion. The aqueous solution was refluxed for 20 min with 0.5 ml, 5% aqueous sodium hydroxide under a stream of nitrogen. The mixture was allowed to cool to room temperature, and then it was cooled in ice prior to being acidified with 6 N HCl to pH 2. The resulting axillary odor developed in the reaction mixture upon acidification was used as the test odorant. The axillary odors generated by this in vitro technique are analogous to the malodors produced by stressed individuals.
Sixteen (16) individuals (8 of each gender) served on an odor panel. Subjects ranged in age from 22 to 55 years (mean 32.7±10.6 s.d.), were not pregnant (by verbal report), and were all non-smokers. All panel members were screened for adequate use of magnitude estimation (some people have difficulties maintaining a ratio scale, i.e., when an odorant is half as strong as the previous, these people fail to provide a number that is half the previous estimate) and further trained in its use during 2-3 training sessions. All 16 subjects were tested with samples of male malodor compared to each of the potential cross-adapting agents. […]

[2] = test system: female stress-derived axillary odor; test: Cross-adaptation of female stress-derived axillary odor (odor panel, magnitude estimation of perceived intensity); format: in vivo, human; conditions: for Magnitude of Reduction of Intensity of Female Stress-Derived Odor (FSDO), Males: female stress-derived odor perceived by men; for Magnitude of Reduction of Intensity of Female Stress-Derived Odor (FSDO), Females: female stress-derived odor perceived by women
Text: as §1, §2, §3, §4
A separate panel of 24 subjects (12 males and 12 females) tested samples of female stress-derived axillary odor with potential cross-adapting agents, some of which were not included in Example 1 above. Some of the subjects assessing the effectiveness of cross-adaptation of male stress-derived axillary odor were also used in the experiment with female secretions. However, these two experiments were treated as independent events. All panel members were screened for adequate use of magnitude estimation and further trained in its use during two to three training sessions. […]
Also: key: best: Best = Superior Cross-Adaptation; good: Good = Adequate Cross-Adaptation; poor: Poor = Ineffective Cross-Adaptation.

| SMILES | Magnitude of Reduction of Intensity of Male Stress-Derived Odor (MSDO), Males [1] | Magnitude of Reduction of Intensity of Male Stress-Derived Odor (MSDO), Females [1] | Magnitude of Reduction of Intensity of Female Stress-Derived Odor (FSDO), Males [2] | Magnitude of Reduction of Intensity of Female Stress-Derived Odor (FSDO), Females [2] |
| --- | --- | --- | --- | --- |
| CC=CC(=O)C1C(C)=CCCC1(C)C (stereo not drawn) [α-Damascone, 1-(2,6,6-trimethyl-2-cyclohexen-1-yl)-2-buten-1-one] | poor | poor | poor | good |
| CC(CO)CCCc1ccccc1 (centres unmarked) [Rosaphen ®, 2-methyl-5-phenylpentan-1-ol] | best | poor | good | poor |
